The subject of one series is depressed rats. The experiment in a line: Chronic unpredictable stress depression model, sucrose preference test. The following applies: after 2 weeks of drug treatment, compared with model group, n = 8. The class given is in vivo, rat. How it is done:
Forty rats were randomly divided into the following groups (n = 8): the normal control group, the model control group, the fluoxetine group (10 mg/kg), the paeoniflorin low-dose group (10 mg/kg), and the paeoniflorin high-dose group (20 mg/kg). Except for the blank control group, the groups were randomly exposed to two stressors, including behavioral constraints, ice water swimming, electric shock, cold stimulation, clip tail, wet bedding, light/dark reversed, shaking, foods and water deprivation, continuously for 8 weeks to establish a chronic unpredictable stress model. The sucrose preference test was performed at 0 and 14 days after administration.

A short description of series [1]: Pharmacokinetics of paeoniflorin in pseudo-germ-free (PGF) rats. The class given is in vivo. The following applies: SD, rat, oral paeoniflorin 20 mg/kg, plasma analyte = labelled substance; for AUC(0-t) / Cmax: plasma, po, 20 mg/kg. How it is done: Chromatography separation was performed using an XSS T3 column (3.5 μm, 2.1 mm × 100 mm, Waters, Milford, MA, United States) with the column temperature maintained at 40°C at a flow rate of 0.4 mL/min. […] The gradient was as follows: 25% eluent B for 2 min; 25–85% B from 2 to 4 min; 85–25% B from 4 to 5 min and held at 25% from 5 to 7 min. The autosampler temperature was set to 4°C. Mass spectrometry was carried out using multiple reaction monitoring mode (MRM). […] The nebulizing gas flow rate was 2.8 L/min, the drying gas flow rate was 10 L/min, and the heating gas flow rate was 10 L/min. […] The remaining fourteen SD rats were orally administered saline equivalently. Two days after administration, pharmacokinetic experiments were performed. […] Plasma samples were immediately stored at 4°C until analysis. Statistical analyses were conducted using two-way ANOVA and Student’s t-test with GraphPad Prism Version 5 (GraphPad Software, La Jolla, CA, United States). The data are expressed as the means ± standard deviation. […] DAS 3.0 was used to calculate the plasma pharmacokinetic parameters.

Setting [2] is: PGF rats (antibiotic pretreated).

Molecules are shown by their SMILES. Where two headings read alike, the source gives them in different places.

These results are taken from PMC6435784, “Gut Microbiota-Based Pharmacokinetics and the Antidepressant Mechanism of Paeoniflorin” (Frontiers in Pharmacology, 2019).

By AUC(0-t) is commonly meant exposure summed from dosing to a finite time, without extrapolation to infinity. As usually defined, the Cmax is the peak of the concentration-time curve. A word on the AUC(0-inf): it is the area under the concentration-time curve extrapolated to infinity. What is called Tmax is the time at which the peak concentration occurs.

In the case of `C[C@@]12C[C@@]3(O)O[C@@H](O1)[C@]1(COC(=O)c4ccccc4)[C@H]3C[C@@]12O[C@@H]1O[C@H](CO)[C@@H](O)[C@H](O)[C@H]1O` [Paeoniflorin], the sucrose preference value entry with depressed rats (10 mg/kg) and in the series on depressed rats (20 mg/kg) was “higher than that in the model group” throughout. Also, the area under the curve AUC(0-t) is 296 ± 100 ng·h/mL in series [1] (PGF rats (antibiotic pretreated), read-out: AUC (0-t)) and 296 ng·h/mL in series [1] (PGF rats, Figures 3B, 3C, read-out: AUC(0-t) (unit inferred)). Also, the Cmax in series [1] (PGF rats (antibiotic pretreated), read-out: Cmax) was found to be 134 ± 48.5 ng/mL; in series [1] (PGF rats, Figures 3B, 3C, read-out: Cmax (unit inferred)) it was 134 ng/mL. For the same compound, the AUC(0-inf) in series [1] (setting [2]) came out at 312 ± 123 ng·h/mL. In addition, in series [1] (setting [2]), the Tmax turned out to be 0.388 ± 0.136 h. The half-life in series [1] (PGF rats (antibiotic pretreated), read-out: t1/2z (converted)) was 2.58 ± 1.61 h.
